Laboratory results reported in US9776992B2, “1-oxo-1,2-dihydroisoquinolin-7-yl-(5-substituted-thiophen-2-yl)-sulfonamide compounds, formulations containing those compounds, and their use as AICARFT inhibitors in the treatment of cancers” (Eli Lilly and Company, priority 2014, dated 2017).

Biological target: AICARFT (Homo sapiens, UniProt P31939)
Test: AICARFT enzyme assay (LC-MS of IMP and ZMP)
Format: biochemical
Parameters: made in house; host or cells: E. coli BL21(DE3)
Conditions: for IC50: Mean ± SEM, 25 μM ZMP, 100 μM 10-F-THFA, 3 nM ATIC enzyme, 1 hour at room temperature; for AICARFT inhibition in enzyme assay (in words): summary of Table 15
Method: Human AICARFT (NCBI accession number: NM_004044.6) cDNA is purchased from Openbiosystem Co. (Cat# MHS1011-62310, Clone ID: 4300570, accession: BC008879). The nucleotide sequence encoding full-length human AICARFT is inserted into pET21d (Novagen) vector with an N-terminal HIS tag. Bacterial BL21(DE3) (Novagen) is used as an expression host, and the induction of protein expression is carried out in 2×TY media with 1 mM IPTG at 18° C. overnight. Cell pellets are stored at −80° C. for subsequent protein purification. Protein purification is conducted at 4° C. Frozen cell pellets are lysed by incubation with stirring in 50 mL cold lysis buffer (50 mM Tris-HCl, pH 7.5, 300 mM NaCl, 10% glycerol, 0.1% Triton X-100, 0.5 mg/mL lysozyme, 5 U/mL benzonase, 1 mM DTT, 10 mM imidazole, and Roche complete EDTA-free protease inhibitor) per liter cell pellet and sonication. Cell lysates are clarified by centrifugation in a Bechman JA-18 rotor for 45 min at 16,500 rpm. The supernatant is incubated with Ni-NTA agarose resin (Qiagen) for 3 hours, followed by an initial batch wash with 10 resin volume of buffer A (50 mM Tris-HCl, pH 7.5, 300 mM NaCl, 10% glycerol, 1 mM DTT, 10 mM imidazole) containing 0.1% Triton X-100. The resin is then packed onto a column and washed with buffer A. The HIS-tagged AICARFT protein is eluted with 10-500 mM imidazole gradient in buffer A. Pooled HIS-AICARFT containing fractions are concentrated, loaded onto a HiLoad 26/600 Superdex 200 column (GE Healthcare Biosciences), and eluted with storage buffer (50 mM Tris-HCl, pH7.5, 150 mM NaCl, 1 mM DTT, 10% Glycerol). Fractions containing HIS-AICARFT are pooled and protein concentration determined by the Bradford assay using BSA as standard. The protein is aliquoted and stored at −80° C.
One of the substrates of the enzyme reaction, 10-formyltetrahydrofolate (10-F-THFA), has limited chemical stability and is therefore synthesized on the same day that the ATIC enzyme assay is performed. The general synthetic route is described in P. Rowe, Methods Enzymol., 18, 733-735, (1971) and J. Rabinowitz, Methods Enzymol., 6, 814-815, (1963). The first step in this synthesis is the conversion of folinic acid (Sigma CAS 1492-18-8) to 5,10-methenyltetrahydrofolic acid (5,10-M-THFA). This conversion typically takes place the day before the enzyme assay is performed, but can be performed up to 1 week earlier and stored at room temperature. To folinic acid (81.6 mg) is added β-mercaptoethanol (2 mL), and 37% concentrated HCl (80 μL), is added. This reaction incubates a minimum of 3 hours at room temperature, with occasional mixing. The color changes from clear to yellow visually, and the complete conversion of folinic acid to 5,10-M-THFA is monitored by spectral analysis using a quartz cuvette. The UV absorption will change from 266 nm to 356 nm during this step. […] On the morning of the assay, the 80 mM 5,10-M-THFA is diluted to 1.6 mM in 40 μM ammonium bicarbonate (made fresh that day). This reaction incubates 3-5 hours at room temperature. The color changes from yellow to clear visually, and the conversion of 5,10-M-THFA to 10-F-THFA is monitored by spectral analysis using a quartz cuvette. The UV absorption will change from 356 nm to 258 nm during this step. […] Test compounds are prepared in DMSO to make a 10 mM stock solution. The stock solution is serially diluted 3-fold in DMSO to obtain a ten-point dilution curve with final compound concentrations ranging from 100 μM to 5 nM. The final DMSO concentration in the assay is 5%.
To each well of a 384-well polypropylene assay plate (NUNC 264573), […] of DMSO (control wells) or compound in DMSO and 9 μL of 55.56 μM ZMP (Sigma-Aldrich CAS 3031-94-5) in water are added. Then, 10 μL of 200 μM 10-F-THFA and 6 nM ATIC enzyme in 40 μM ammonium bicarbonate is added. […] The assay is incubated for 1 hour at room temperature, after which 40 μL of ACN is added to stop the reaction.

Chain of AICARFT (P31939 whole entry): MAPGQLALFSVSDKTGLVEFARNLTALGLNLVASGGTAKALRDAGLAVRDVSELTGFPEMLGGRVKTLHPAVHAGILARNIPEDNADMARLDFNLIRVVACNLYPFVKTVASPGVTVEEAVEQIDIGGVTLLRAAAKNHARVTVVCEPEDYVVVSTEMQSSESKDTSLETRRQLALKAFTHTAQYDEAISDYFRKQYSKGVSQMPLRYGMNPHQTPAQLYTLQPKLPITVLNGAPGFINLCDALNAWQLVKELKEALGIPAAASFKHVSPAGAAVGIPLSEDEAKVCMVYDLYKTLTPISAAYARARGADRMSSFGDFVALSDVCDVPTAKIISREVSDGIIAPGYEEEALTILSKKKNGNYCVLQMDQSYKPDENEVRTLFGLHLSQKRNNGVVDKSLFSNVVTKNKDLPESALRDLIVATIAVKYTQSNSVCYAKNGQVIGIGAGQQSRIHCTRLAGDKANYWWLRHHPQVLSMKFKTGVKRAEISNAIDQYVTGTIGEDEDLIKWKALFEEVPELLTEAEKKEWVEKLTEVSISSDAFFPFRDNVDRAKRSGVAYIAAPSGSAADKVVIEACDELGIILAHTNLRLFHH

| SMILES | IC50 | AICARFT inhibition in enzyme assay (in words) |
| --- | --- | --- |
| O=c1[nH]ccc2cc(F)c(NS(=O)(=O)c3ccc(N4C[C@@H](O)C(F)(F)C4)s3)cc12 [Example 41, 5-[(4R)-3,3-difluoro-4-hydroxypyrrolidin-1-yl]-N-(6-fluoro-1-oxo-1,2-dihydroisoquinolin-7-yl)thiophene-2-sulfonamide] | 10.6 nM | inhibit AICARFT |
| CCC1(C)CC(c2ccc(S(=O)(=O)Nc3cc4c(=O)[nH]ccc4cc3F)s2)=CNC1=O (single isomer, unassigned; isomer 1) [Example 84, 5-(5-Ethyl-5-methyl-6-oxo-1,4,5,6-tetrahydropyridin-3-yl)-N-(6-fluoro-1-oxo-1,2-dihydroisoquinolin-7-yl)thiophe2ne-2-sulfonamide, Isomer 1] | < 5.08 nM | inhibit AICARFT |
| O=c1[nH]ccc2cc(F)c(NS(=O)(=O)c3ccc(N4C[C@@H](O)[C@@H](F)C4)s3)cc12 (single isomer, unassigned) [Example 33] | 7.75 nM | inhibit AICARFT |

The next lines start with the values.

| IC50 | AICARFT inhibition in enzyme assay (in words) | SMILES |
| --- | --- | --- |
| < 5.08 nM | inhibit AICARFT | CC1(C)CC(c2ccc(S(=O)(=O)Nc3cc4c(=O)[nH]ccc4cc3F)s2)=CNC1=O [Example 81, 5-(5,5-Dimethyl-6-oxo-1,4,5,6-tetrahydropyridin-3-yl)-N-(6-fluoro-1-oxo-1,2-dihydroisoquinolin-7-yl)thiophene-2-sulfonamide] |
| – | inhibit AICARFT | O=c1[nH]ccc2cc(F)c(NS(=O)(=O)c3ccc(N4CC[C@@H](O)C4)s3)cc12 [Example 1, N-(6-Fluoro-1-oxo-1,2-dihydroisoquinolin-7-yl)-5-[(3R)-3-hydroxypyrrolidin-1-yl]thiophene-2-sulfonamide] |
| 29.1 nM | inhibit AICARFT | O=c1[nH]ccc2cc(F)c(NS(=O)(=O)c3ccc([C@@H]4CC[C@@H](O)C4)s3)cc12 (single isomer, unassigned) [Example 46] |
